# Measurements as given in patent US12728114B2, “Methods of treating inflammation” (VERU INC., priority 2021, dated 2026).
# Values joined by “and” are separate entries in the source; they are usually repeats but may differ in a detail not shown here. Equal values may be shown once. “Also recorded” adds a separate entry of the source. Read-outs that look alike come from different tables or passages of the source.
# Key:
# IL-1β [1] = system: IL-1β
# IL-1α = details: 17ya 40 nM, Dex 10 nM; for IL-1α, replicate 1 / IL-1α, replicate 2 / IL-1α, replicate 3: mouse spleen cells, LPS 5 μg/ml
# CXCL-1/KC = assay type: cell-based, mouse
# TNF-α [2] = assay type: cell-based, mouse
# IL-6 = assay type: cell-based, mouse
# TNF-α [3] = experiment: Splenocyte model, flow cytometry of TNF-α expressing cells after LPS; assay type: cell-based, mouse; details: 200 nM, 2 hrs preincubation, LPS 5 μg/mL 20 hrs; LPS alone 6.48%, unstimulated 1.03%
# Experimental: Briefly, cells were washed two times with FACS (PBS containing 1% serum FBS) staining buffer and fully re-suspended in Cyto-Fast Fix/Perm Buffer for 20 min. Then the cells were washed again for two times with Cyto-Fast Perm wash solution and subsequently stained with recommended dilutions of intracellular antibodies for 30 min at room temperature in the dark. After staining, the cells were washed twice in FACS staining buffer, before they were resuspended in FACS staining buffer and analyzed using a NovoCyte flow cytometer (Agilent, Santa Clara, CA). […] FIG. 2E illustrates the flow cytometry of splenocytes incubated with LPS and Colchicine (200 nM).
# IL-1β [4] = experiment: ELISA assay to determine IL-1β in PMA-differentiated THP-1 cells stimulated by nigericin; assay type: cell-based, human; details: 17ya 40 nM-5 μM, colchicine 1-10 μM, 1 hr, nigericin 20 μM 1 hr
# Experimental: Concentrations of IL-1β in culture supernatant. […] IL-1β level was assessed by enzyme-linked immunosorbent assay (ELISA) kit for human IL-1β (R&D systems) (****P<0.0001, Ordinary one-way ANOVA, Prism 9).
# [5] = adjusted data (control average subtracted), mouse spleen cells, LPS 5 μg/ml, 17ya 40 nM, Dex 10 nM
# [6] = raw data, mouse spleen cells, LPS 5 μg/ml, 17ya 40 nM, Dex 10 nM
# [7] = adjusted data (control average subtracted)
compound,measurement,setting,value
"C[C@@H]1C[C@H]2[C@@H]3CCC4=CC(=O)C=C[C@]4(C)[C@@]3(F)[C@@H](O)C[C@]2(C)[C@@]1(O)C(=O)CO [Dex, dexamethasone]","IL-1β, replicate 2",IL-1β [1],4.382
same,"average cytokine suppression, IL-1β","IL-1β [1]; LPS-stimulated mouse spleen cells, 17ya 40 nM, Dex 10 nM",110%
same,"IL-1β, replicate 1",IL-1β [1]; [5],−1.904
same,"IL-1β, replicate 2",IL-1β [1]; [5],−2.334
same,"IL-1β, replicate 1",IL-1β [1]; [6],4.812
same,"IL-1β, replicate 3",IL-1β [1]; [6],3.956
same,"average cytokine suppression, IL-1α",IL-1α; LPS-stimulated mouse spleen cells,106%
same,"IL-1α, replicate 1",IL-1α; [7],−10.371
same,"IL-1α, replicate 2",IL-1α; [7],−2.519
same,"IL-1α, replicate 3",IL-1α; [7],3.688
same,"IL-1α, replicate 1",IL-1α; raw data,22.962
same,"IL-1α, replicate 2",IL-1α; raw data,30.814
same,"IL-1α, replicate 3",IL-1α; raw data,37.012
same,"CXCL-1/KC, Average",CXCL-1/KC,136.043 and 253.688
same,"CXCL-1/KC, replicate 1",CXCL-1/KC,133.410 and 251.054
same,"CXCL-1/KC, replicate 2",CXCL-1/KC,132.285 and 249.929
same,"CXCL-1/KC, replicate 3",CXCL-1/KC,142.436 and 260.08
same,"average cytokine suppression, KC",CXCL-1/KC,59%
same,"TNF-α, Average",TNF-α [2],32.414 and 33.60
same,"TNF-α, replicate 1",TNF-α [2],34.2933 and 35.478
same,"TNF-α, replicate 2",TNF-α [2],31.309 and 32.494
same,"TNF-α, replicate 3",TNF-α [2],31.640 and 32.825
same,"average cytokine suppression, TNF-α",TNF-α [2],79%
same,"IL-6, replicate 1",IL-6,99.55 and 17.594
same,"IL-6, replicate 2",IL-6,73.64 and −8.316
same,"IL-6, replicate 3",IL-6,72.76 and −9.196
same,"average cytokine suppression, IL-6",IL-6,100%
COc1cc2c(c(OC)c1OC)-c1ccc(OC)c(=O)cc1[C@@H](NC(C)=O)CC2 [colchicine],spleen cells expressing TNF-α,TNF-α [3],3.30%
same,IL-1β secretion in response to nigericin stimulation,IL-1β [4],dose-dependently (partially) suppressed the IL-1β levels; also recorded: significantly suppressed IL-1β secretion
